US20250376498A1, “FUSION PROTEINS COMPRISING AN IMPROVED GLP-1 RECEPTOR AGONIST AND USES THEREOF” (Guangzhou Innogen Pharmaceutical Group Co., Ltd., priority 2022, published 2025)
“Also recorded” adds a separate entry of the source.

B1: YN-011: GLP-1 fusion protein of SEQ ID NO: 7: GLP-1 (A8G, G22E, R36G), linker peptide and IgG2/Fc domain (C222S, A330S, P331S) (protein)
chain: HGEGTFTSDVSSYLEEQAAKEFIAWLVKGGGSSGAPPPSGGGGSERKSCVECPPCPAPPVAGPSVFLFPPKPKDTLMISRTPEVTCVVVDVSHEDPEVQFNWYVDGVEVHNAKTKPREEQFNSTFRVVSVLTVVHQDWLNGKEYKCKVSNKGLPSSIEKTISKTKGQPREPQVYTLPPSREEMTKNQVSLTCLVKGFYPSDIAVEWESNGQPENNYKTTPPMLDSDGSFFLYSKLTVDKSRWQQGNVFSCSVMHEALHNHYTQKSLSLSPG

Experiments:
SH-SY5Y neuronal cells = test: TNF-α-induced decrease in SH-SY5Y cell viability (CCK-8); format: cell-based; conditions: 60 ng/ml TNF-α, 48 hours; YN-011 10, 100, 500 nM; GABA 100 μM
Experimental: SH-SY5Y neuronal cells were digested using 0.25% trypsin to prepare a single-cell suspension. The single-cell suspension was seeded in a 96-well plate at a density of 10,000 cells per well in 100 μl of medium. The plate was placed in a CO2 incubator overnight (37° C., 5% CO2) to allow cell adhesion. The medium was replaced with medium containing 10% FBS or 5% FBS, and cells were stimulated with 20, 40, 60, 80, or 100 ng/ml TNF-α for 48 hours. Each drug treatment was performed in six replicate wells. After 48 hours of drug treatment, 10 μl of CCK-8 solution was added to each well, and the plate was gently shaken to mix the reagents. The plate was then incubated in a CO2 incubator for 1-4 hours. The absorbance at 450 nm was measured using a microplate reader, and cell viability was calculated using the following formula:
[formula] • A (treated): OD value of wells containing cells, CCK-8 solution, and drug solution • A (control): OD value of wells containing cells and CCK-8 solution without drug solution • A (blank): OD value of wells without cells
Please refer to section 8.1 for the experimental procedure, but the drug treatment in this experiment is different from section 8.1. […]

HMC3 microglial cells = test: Inflammatory factor mRNA in HMC3 microglial cells induced by Aβ1-42 oligomers (qPCR); format: cell-based, human; conditions: for mRNA expression of IL-6 / mRNA expression of TNF-α: 10 μM Aβ1-42 oligomers, 48 hours, YN-011 100 nM and 500 nM; for mRNA expression of IL-6: GABA 10 μM and 100 μM (so in the source); for mRNA expression of TNF-α: GABA 100 μM, combination 100 μM GABA and 100 nM YN-011; for inflammatory cytokine mRNA expression: Aβ1-42 oligomers (figure legends)
Experimental: Under sterile conditions, dissolve the synthesized Aβ1-42 peptide (AnaSpec #AS-20276) in hexafluoroisopropanol (Mecklin #H811026) to obtain a 1 mM solution. Divide the solution into 1.5 ml sterile centrifuge tubes and evaporate the hexafluoroisopropanol in a vacuum evaporator. The dried peptide forms a film in the tubes and is stored at −20° C. for later use. Freshly prepare Aβ1-42 oligomers from the dried peptide film as follows: dissolve the dried peptide film in anhydrous DMSO to obtain a 5 mM solution, then dilute with cold cell culture basal medium to obtain a 100 µM stock solution. After incubating at 4° C. for 24 hours, use the stock solution for cell treatment.
Seed HMC3 human microglial cells into a 24-well plate. After overnight incubation at 37° C. with 5% CO2, treat the cells in each well with 10 μM Aβ1-42 oligomers alone or co-treated with 1, 10, or 100 μM GABA for 48 hours. Each drug treatment is performed in three replicate wells. After 48 hours of treatment, isolate total RNA from the cells in each well using 1 ml of Trizol (Invitrogen #15596026) following the manufacturer's instructions. Dissolve the RNA pellet in 20 μl of DEPC-treated water. Measure the RNA concentration and purity using a NanoDrop 2000. Convert RNA into cDNA using a reverse transcription kit (Yeasen #11141ES60). Prepare the PCR reaction as follows: 5 μl of PCR mix (Yeasen #10108ES03), 0.2 μl of forward primer, 0.2 μl of reverse primer, 1 μl of cDNA, and 3.6 μl of water. Perform qPCR on an Applied Biosystems 7500 real-time PCR system using the following thermal program: initial denaturation at 95° C. for 3 minutes, followed by 40 cycles of denaturation at 95° C. for 30 seconds, annealing at 60° C. for 30 seconds, and extension at 72° C. for 1 minute. Compare the relative mRNA expression of TNF-α and IL-6 between treated and untreated cells using the ΔΔCt method, normalized to the expression of the housekeeping gene RPLP0.
(§1) Please refer to section 8.17 for the experimental procedure, but the drug treatment in this experiment is different from that in section 8.17. In this experiment, the drug treatment is as follows: treat the cells in each well with 10 μM Aβ1-42 oligomers alone or co-treated with 10, 100, or 500 nM YN-011 for 48 hours. Each drug treatment is performed in three replicate wells.
as §1, with “µM” for “μM”, “100 μM GABA and/or 100” for “10, 100, or 500”

Molecule | SH-SY5Y cell viability (SH-SY5Y neuronal cells) | mRNA expression of IL-6 (HMC3 microglial cells) | mRNA expression of TNF-α (HMC3 microglial cells) | inflammatory cytokine mRNA expression (HMC3 microglial cells)
NCCCC(=O)O [GABA, γ-aminobutyric acid] | significantly enhanced cell viability; also recorded: inhibiting TNF-α-induced reduction in SH-SY5Y cell viability | significantly reduce | significantly reduces | reduction of inflammatory cytokine mRNA expression
B1 | significantly enhanced cell viability; also recorded: inhibiting TNF-α-induced reduction in SH-SY5Y cell viability | significantly reduce | significantly reduce | reduction of inflammatory cytokine mRNA expression
